In US9447156B2, “Methods and compositions for inhibiting neddylation of proteins” (St. Jude Children's Research Hospital, priority 2011, dated 2016):

What was measured:
hCul1^ctd-hRbx1 = assay: ITC hDcn1^P binding to hCul1^ctd-hRbx1; settings: human versus yeast Kd
Protocol: (§1) Protein samples were buffer matched by desalting over a NAP-5 column (GE Healthcare) into 50 mM Hepes, 125 mM NaCl, 1 mM BME, pH 7.0 (ITC buffer). Peptides were dissolved by weight to a final concentration of 10 mM in ITC buffer and diluted further in ITC buffer as required for the experiments. Measurements were performed using a MicroCal ITC200. hDcn1^P or yDcn1^P were placed into the sample cell at a final concentration of 400 μM at 18° C. The peptide ligands (4 mM) were constantly injected (1.5 μl). The interval time between each injection was 3 minutes and the duration of each injection was 3 seconds. For titrations involving hE1 and yE1, proteins were placed into the sample cell at a final concentration of 25 μM at 22° C. Peptide ligands (250 μM) were constantly injected (2.5 μl). The interval time between each injection was three minutes and the duration of each injection was 5 seconds. For hCul1^ctd-Rbx1:hDcn1^P binding, proteins were buffer matched by desalting over a NAP-5 column in 25 mM Tris, 0.1 M NaCl, 1 mM BME, pH 7.6. hCul1^ctd-Rbx1 was placed into the sample cell at a final concentration of 55 μM at 22° C. hDcn1^P (550 μM) was constantly injected (2.5 μl). The interval time between each injection was 3 minutes and the duration of each injection was 5 seconds. Obtained spectra were evaluated using Origin (V 7.0) to determine heats of binding and Kd values.

hDcn5^P = target: T1, hDcn5^P (Homo sapiens, UniProt Q9BTE7); assay: ITC binding of peptides to hDcn5^P; settings: Table 29, peptides with amidated carboxy-terminus
T1 construct: human Dcn1 family members 1-5 (also called DCUND1-DCUND5)
T1 sequence (Q9BTE7 47-237): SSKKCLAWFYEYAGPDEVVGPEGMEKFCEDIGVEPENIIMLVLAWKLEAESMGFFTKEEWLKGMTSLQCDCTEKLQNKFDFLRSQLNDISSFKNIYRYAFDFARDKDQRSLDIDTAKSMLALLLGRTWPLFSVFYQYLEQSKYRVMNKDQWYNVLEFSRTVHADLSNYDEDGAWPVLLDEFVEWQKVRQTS
Protocol: as §1, with “values. […]” for “values.”

hDcn2^P = target: T2, hDcn2^P (Homo sapiens, UniProt Q6PH85); assay: ITC binding of peptides to hDcn2^P; settings: Table 29, peptides with amidated carboxy-terminus
T2 construct: human Dcn1 family members 1-5 (also called DCUND1-DCUND5)
Protocol: as §1
(§2) The affinity of various peptides for hDcn1^P, hDcn2^P, hDcn3^P, hDcn4^P, and hDcn5^P was tested using isothermal titration calorimetry as described in Example 1 and is provided in Table 29.

hDcn4^P = target: T3, hDcn4^P (Homo sapiens, UniProt Q92564); assay: ITC binding of peptides to hDcn4^P; settings: Table 29, peptides with amidated carboxy-terminus
T3 sequence (Q92564 102-292): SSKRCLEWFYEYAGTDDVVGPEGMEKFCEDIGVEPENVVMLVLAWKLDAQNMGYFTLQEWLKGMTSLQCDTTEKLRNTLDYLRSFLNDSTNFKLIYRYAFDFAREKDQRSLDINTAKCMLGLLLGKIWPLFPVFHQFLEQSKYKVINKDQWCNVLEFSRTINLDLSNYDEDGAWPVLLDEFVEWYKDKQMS
Protocol: as §1, with “values. […]” for “values.”

hDcn1^P = target: T4, hDcn1^P (Homo sapiens, UniProt Q96GG9); assay: ITC binding of Ubc12/Ube2f peptides to hDcn1^P; settings: Table 29, peptides with amidated carboxy-terminus, read-out: Binding Kd for hDcn1^P
T4 construct: hDcn1^P corresponds to residues 62 to the C-terminal residue 259 of hDcn1; GST (cleaved yes); made in house; host or cells: E. coli BL21(DE3)Gold
Protocol: as §1, §2

yCul1^C+-yRbx1 = settings: yeast counterparts; read-out: Kd yCul1^C+-yRbx1:yDcn1^P; cited from earlier work
yCul1^C+-yRbx1, sequence (Q12018 427-815 limits assumed): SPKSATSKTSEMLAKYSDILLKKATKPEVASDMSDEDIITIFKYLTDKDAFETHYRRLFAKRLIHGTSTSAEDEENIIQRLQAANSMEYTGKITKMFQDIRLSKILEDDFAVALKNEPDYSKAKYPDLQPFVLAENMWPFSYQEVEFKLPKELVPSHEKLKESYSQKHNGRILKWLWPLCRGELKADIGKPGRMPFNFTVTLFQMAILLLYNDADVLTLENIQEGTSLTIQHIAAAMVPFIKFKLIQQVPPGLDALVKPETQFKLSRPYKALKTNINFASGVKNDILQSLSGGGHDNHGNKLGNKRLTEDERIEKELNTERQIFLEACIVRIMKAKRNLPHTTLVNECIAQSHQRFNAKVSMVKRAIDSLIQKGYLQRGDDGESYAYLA
yCul1^C+-yRbx1, sequence (Q08273 32-121 limits assumed, further chain): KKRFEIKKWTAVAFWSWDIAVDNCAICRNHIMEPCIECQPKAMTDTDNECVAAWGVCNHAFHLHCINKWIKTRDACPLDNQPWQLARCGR

T4 sequence (Q96GG9 62-259): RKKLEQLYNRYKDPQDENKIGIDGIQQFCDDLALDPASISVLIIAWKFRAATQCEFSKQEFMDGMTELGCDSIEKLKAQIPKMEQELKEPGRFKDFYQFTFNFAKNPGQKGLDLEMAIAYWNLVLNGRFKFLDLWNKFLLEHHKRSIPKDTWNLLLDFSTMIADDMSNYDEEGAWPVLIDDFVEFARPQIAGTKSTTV
T2 sequence (Q6PH85 62-259): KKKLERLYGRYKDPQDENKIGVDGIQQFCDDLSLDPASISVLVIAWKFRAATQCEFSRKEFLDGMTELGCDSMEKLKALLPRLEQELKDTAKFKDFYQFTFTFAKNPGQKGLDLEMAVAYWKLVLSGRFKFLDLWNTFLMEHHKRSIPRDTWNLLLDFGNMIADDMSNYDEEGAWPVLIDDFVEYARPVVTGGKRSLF

hDcn1^P: residues 62 to 259 of hDcn1 (SCCRO, DCUN1D1), the potentiating neddylation domain
Kd of human proteins relative to yeast counterparts (fold worse) (hCul1^ctd-hRbx1): approximately 30 fold

Ac-MLTLASKLKRDDGLKGSRTAATASD-NH2 [hUbe2f^Ac1−25]
Kd (hDcn5^P): > 30 µM | Kd (hDcn2^P): > 400 µM | Kd (hDcn4^P): > 40 µM | Kd (hDcn1^P): > 500 µM

B1: yDcn1^P: PONY domain of S. cerevisiae Dcn1 (protein)
chain: VYPKELTQVFEHYINNNLFDIDSLVKFIEELGYNLEDLATLCLAHLLGYKKLEEPLKREDFLSTWFMQGCSTISDMQECIKTLDVKLHEDLQYFTQIYNYAFNLILDPNRKDIDTDEGIQYWKLFFQPEYPVRMEPDLLEAWFRFLRDEGKTTISKDTWRMLLLFFKRYPTIQKIISDYDETAAWPFIIDEFYECLQDQQ
Kd (yCul1^C+-yRbx1): 0.028 µM
